Measurements published in patent US6461624B2, “Skin-protective composition” (priority 1997, dated 2002).

Legend:
Assay in all cases: Cell survival / percentage killing of a culture exposed to an agent (viable counts)
[1] = tested on: Ps. aeruginosa (lab isolate); format: cell-based, Pseudomonas aeruginosa; details: for Percentage of cells killed after 5 minutes exposure, Ps. aeruginosa: 0.5% lauric acid Na salt and/or 0.25% Parabens Na salt, sodium salt
Experimental: (§1) Determination of the Cell Counts
(§2) This was achieved by a number of different techniques depending on the circumstances involved. The techniques used were:
(§3) 1. Standard spread plate technique
(§4) This involves spreading a 100 μl aliquot of the desired dilution onto well dried agar plates using an alcohol flamed hockey stick.
(§5) In this method 1 ml samples of the diluted culture are placed into a sterile petri dish and then sterile cooled agar is added. The plate is then gently swirled to facilitate a […] mixing of the sample and the agar and allowed to solidify before being incubated at the temperature of choice in an inverted manner.
(§6) 3. Spot/drop plating method
(§7) This method involves the placing of a sample or the diluted sample onto a pre-dried agar plate but the sample is allowed to dry into the plate. Usually an aliquot of 5-20 μl is chosen to be thus plated. This method offers the advantages of being both economical in terms of agar plates (several drops can be readily accommodated on one agar plate) and also accurate.
(§8) All plates were incubated for 16 hours before being counted.
(§9) All dilutions were carried out in ¼×Ringers solution and all bacteria were grown up in Tryptic Soy Broth (TSB)
(§10) Determination of the cell survival/percentage killing of a culture with respect to exposure to a given agent.
(§11) In this method a sample of a fresh overnight culture was titred and a sample (usually 5 mls) was added to either broth (100mls) containing the test reagents or sterile water (100 mls) and test agents.
(§12) Immediately a sample (T0) was taken and plated using one of the techniques listed above. At regular intervals thereafter other samples were also removed, diluted and plated.
(§13) Error is 1 standard deviation of the mean.

[2] = tested on: MRSA strain S13; format: cell-based, Methicillin Resistant Staphylococcus aureus; details: for Percentage of cells killed after 5 minutes exposure, MRSA (S13): 0.5% lauric acid Na salt and/or 0.25% Parabens Na salt, sodium salt
Experimental: as §1, §2, §3, §4, §5, §6, §7, §8, §9, §10, §11, §12, §13

[3] = tested on: Vancomycin-resistant Enterococci; format: cell-based, Enterococcus; details: for killing effect / mode of action on Vancomycin-resistant Enterococci (in words): methyl/propyl paraben Na salt 0.25% (w/v) (1:1) and/or lauric acid Na salt 0.50% (w/v), sodium salt
Experimental: as §1, §2, §3, §4, §5, §6, §7, §8, §9, §10, §11, §12, §13

[4] = tested on: E. coli (lab isolate); format: cell-based, Escherichia coli; details: 0.5% lauric acid Na salt and/or 0.25% Parabens Na salt
Experimental: as §1, §2, §3, §4, §5, §6, §7, §8, §9
Determination of the cell survival/percentage killing of a culture with respect to exposure to a given agent. […]

[5] = methyl/propyl paraben Na salt 0.25% (w/v) (1:1) and/or lauric acid Na salt 0.50% (w/v)

SMILES: CCCCCCCCCCCC(=O)[O-].[Na+] [lauric acid Na salt, lauric acid sodium salt]
- Percentage of cells killed after 5 minutes exposure, Ps. aeruginosa ([1]; listed as lauric acid): 13
- Percentage of cells killed after 5 minutes exposure, Ps. aeruginosa [1]: >13
- killing effect / mode of action on Ps. aeruginosa (in words) [1, 5]: not effective
- reduction of a population of MRSA ([2]; 0.50% lauric acid Na salt, isolate S13 in water held at 37° C., over 2 hrs): 99.8%
- killing of MRSA ([2]; 0.50% lauric acid Na salt, repeated experiment, after 30 mins): 99.6%
- killing of MRSA ([2]; 1.75% lauric acid Na salt, isolate S13, over 2 hrs): < 99.0%
- Percentage of cells killed after 5 minutes exposure, MRSA (S13) ([2]; listed as lauric acid): more than 97
- Percentage of cells killed after 5 minutes exposure, MRSA (S13) [2]: >97
- killing effect / mode of action on MRSA isolate S13 (in words) [2, 5]: does elicit killing effect
- Percentage of cells killed after 5 minutes exposure, Vancomycin Resistant Enterococcus ([3]; 5 minutes, 0.5% lauric acid Na salt and/or 0.25% Parabens Na salt): 100
- kill rate ([3]; after 5 mins): 100%
- survivors present when samples were plated ([3]; after 5 mins, T0 count 4.63×10^7 cfu/ml): no survivors
- killing effect / mode of action on Vancomycin-resistant Enterococci (in words) ([3]; listed as Lauric acid Na salt): bactericidal
- killing effect / mode of action on Vancomycin-resistant Enterococci (in words) ([3]; listed as lauric acid): totally destroyed
- survivors present when samples were plated ([3]; strain FPL050, after 5 mins): no survivors
- Percentage of cells killed after 5 minutes exposure, E. coli [4]: >90
